In brackets after ≈: the same amount, converted by molar mass. Where two headings read alike, the source gives them in different places.
Experiments:
Kinetic solubility = assay type: physicochemical; conditions: phosphate buffer, aqueous buffer, kinetic from dmso stock, PBS (pH 7.4), 1% DMSO, room temperature
Experimental: Aliquots of 8 μL of reference and test compound stock solutions (10 mM/5 mM) are added into 792 μL of 100 mM pH 7.4 phosphate buffer. The final DMSO concentration is 1%. Sample tubes are shaken for 2 hours at 1000 rpm at room temperature. Samples are centrifuged at 12000 rpm for 10 min to precipitate un-dissolved particles. And transfer the supernatants to a new tube or plate. Add 5 μL of samples (no diluted, 10 times diluted and 100 times diluted) and standard curve samples to 95 μL of ACN containing IS for LC-MS/MS analysis.

[1] = target: T1, Ba/F3-FL-TYK2-P760L cells (Homo sapiens, UniProt P29597, P760L, cells depend on it); experiment: Anti-proliferative assay, Ba/F3-FL-TYK2-P760L cells (Cell-Titer Glo); assay type: cell-based; conditions: 72 h, read-out: BaF3-FL-T2P760L IC50
T1 construct: BaF3-FL-T2P760L (nM)
Outline: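 Compound exposure ran 72 h at 37 °C in 5% CO2 across nine 3-fold concentrations from a 20 μM top dose, added 24 h after seeding 2000 cells/well.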

TYK2 = target: T2, TYK2 (Homo sapiens, UniProt P29597); experiment: TYK2 kinase activity, microfluidic assay (Caliper EZ Reader II); assay type: biochemical; conditions: TYK2 1 nM, 1 mM ATP
T2 construct: purchased Carna Biosciences
Experimental: (§1) Testing for JAK1, JAK2 and TYK2 Kinase Activities
(§2) JAK activity was determined in the reaction buffer 50 mM HEPES, 0.01% Brij35, 10 mM MgCl2, 2 mM DTT by a microfluidic assay. The phosphorylation of a FAM labeled peptide substrate was monitored in the Caliper EZ Reader II (Perkin Elmer). The assay condition for each batch of enzyme (Carna Biosciences) was optimized to obtain 10% conversion rate of peptide substrate.
(§3) The test compounds were dissolved in DMSO to a stock concentration of 10 mM. Three-fold serially diluted compounds with top concentration of 5 μM were pre-incubated with JAK1, JAK2 or TYK2 for 10 min at ambient temperature. The final DMSO concentration of assay mixture was 1%. […] The reaction was stopped by adding 50 mM EDTA.
(§4) The percent inhibition was calculated by the following formula:
(§5) [formula] • wherein • Conversion %_max=the conversion rate in the positive well without addition of compound • Conversion %_sample=the conversion rate of test compounds • Conversion %_min=the conversion rate in the well without addition of enzyme
(§6) The dose-response (percent inhibition) curve was plotted and IC50 values were determined by GraphPad software.

JAK2 = target: T3, JAK2 (Homo sapiens, UniProt O60674); experiment: JAK2 kinase activity, microfluidic assay (Caliper EZ Reader II); assay type: biochemical; conditions: JAK2 0.125 nM, 1 mM ATP
T3 construct: purchased Carna Biosciences
Experimental: as §1, §2, §3, §4, §5, §6

TYK2-JH2 domain = target: T4, TYK2-JH2 domain (Homo sapiens, UniProt P29597); experiment: Binding activity test for JH2 domain of TYK2 (Tb-antibody/tracer FRET)
T4 construct: IC50 on JH2 domain activity (nM)
Outline: (§7)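 FRET read-out after 60 min at 25° C plus overnight at 4° C; tracer displacement detected via Tb-labelled antibody on the JH2 domain. Dose-response used 11 points at 3-fold dilution.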

Ba/F3-TEL-TYK2 cells = target: T5, Ba/F3-TEL-TYK2 cells (Homo sapiens, UniProt P29597); experiment: Anti-proliferative assay, Ba/F3-TEL-TYK2 cells (Cell-Titer Glo); assay type: cell-based; conditions: 72 h, read-out: BaF3-TEL-TYK2 IC50
T5 construct: fused on or other part: Dimerization domain of TEL (ETV6) fused to the TYK2 kinase domain; P41212 (Transcription factor ETV6)
Experimental: Anti-Proliferative Assay Dimerization domain of Tel protein fused with JAK kinase domain was permanently transduced into Ba/F3 cells, whose proliferation is dependent on JAK activity in the absence of IL-3 induction. These engineered Ba/F3 cells (Ba/F3-FL-TYK2-[…], Ba/F3-TEL-TYK2 and Ba/F3-TEL-JAK2) were used to monitor JAK inhibitory activities of the compounds in the cellular. […] Cells were seeded at 2000/well of white flat bottom 96-well plates. The well containing medium only was used as background control. After 24 h growth, cells were treated with compounds. The test compounds were dissolved in DMSO to a stock concentration of 20 mM. 3-fold serially diluted compounds for 9 concentrations with top concentration of 20 μM was added into the each well. […] The cells continued to grow at 37° C. in 5% CO2 for 72 h after compound treatment. The viability was measured by cellular ATP determination using the Cell-Titer Glo luciferase reagent (Promega). The Luminescence value was recorded by a multi-label reader Envision (PerkinElmer).

JAK1 = target: T6, JAK1 (Homo sapiens, UniProt P23458); experiment: JAK1 kinase activity, microfluidic assay (Caliper EZ Reader II); assay type: biochemical; conditions: JAK1 5 nM, 1 mM ATP
T6 construct: purchased Carna Biosciences
Experimental: as §1, §2, §3, §4, §5, §6

[2] = Microsomal metabolic stability assay; assay type: in vitro ADME; conditions: pH 7.4, 0.5 mg/mL protein, 1 μM compound
Outline: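 Parent loss was tracked by LC/MS/MS at 0, 5, 15, 30 and 45 min, with half-life derived from the ln(% remaining)–time slope. Incubation at 37 °C, pH 7.4 phosphate/EDTA buffer: 0.5 mg/mL microsomes, 1 μM compound, NADPH-regenerated (2 mM).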

[3] = Plasma protein binding by equilibrium dialysis; assay type: in vitro ADME; conditions: human plasma, equilibrium dialysis 5 hours at 37° C.; read-out: % Bound (human) (converted)
Experimental: Plasma Protein Binding by Equilibrium Dialysis
Aliquots of test compound stock solution and warfarin stock solution were spiked into plasma to give the matrix solutions with theoretical concentrations of test compound at 0.2 and 2 μM or warfarin at 2 μM. Immediately transfer 50 μL of the spiked plasma solution suspension to a 96-well plate to act as T=0 control sample. Assemble the dialysis set up following the manufacturer's instructions. Load cells with 150 μL of plasma sample and dialyzed against equal volume of dialysis buffer (PBS). The assay is performed in duplicate. Cover the unit with gas permeable lid and incubate for 5 hours at 37° C. at 100 rpm in a constant temperature shaking box. At the end of incubation, remove lid and pipette 50 μL of post-dialysis samples from both buffer and plasma solution chambers into separated 96-well plate for analysis, respectively. Add 50 μL of plasma solution to the buffer samples, and an equal volume of PBS to the collected plasma solution samples. Shake the plate at 1000 rpm for 2 minutes and add 600 μL of 50% ACN/MeOH containing an appropriate internal standard (IS) to precipitate protein and release compound. Vortex at 1000 rpm for 10 minutes. Centrifuge for 10 minutes at 4000 rpm. Then transfer 75 μL of the supernatant to new 96-well plates for analysis. Add 150 μL of distilled water to each sample and mix for analysis by LC-MS/MS.
The free rate (% Unbound), binding rate (% Bound), and recovery rate (% Recovery) of the compound are calculated as follows: […]

JAK1-JH2 domain = target: T7, JAK1-JH2 domain (Homo sapiens, UniProt P23458); experiment: Binding activity test for JH2 domain of JAK1 (Tb-antibody/tracer FRET)
T7 construct: IC50 on JH2 domain activity (nM)
Outline: as §7

[4] = dog liver microsomes, read-out: Dog LM Clint
[5] = dog liver microsomes, read-out: Dog LM T½
[6] = human liver microsomes, read-out: Human LM Clint
[7] = human liver microsomes, read-out: Human LM T½
[8] = rat liver microsomes, read-out: Rat LM Clint
[9] = rat liver microsomes, read-out: Rat LM T½

T5 sequence (P29597 whole entry, change not shown, the tested form may be a part): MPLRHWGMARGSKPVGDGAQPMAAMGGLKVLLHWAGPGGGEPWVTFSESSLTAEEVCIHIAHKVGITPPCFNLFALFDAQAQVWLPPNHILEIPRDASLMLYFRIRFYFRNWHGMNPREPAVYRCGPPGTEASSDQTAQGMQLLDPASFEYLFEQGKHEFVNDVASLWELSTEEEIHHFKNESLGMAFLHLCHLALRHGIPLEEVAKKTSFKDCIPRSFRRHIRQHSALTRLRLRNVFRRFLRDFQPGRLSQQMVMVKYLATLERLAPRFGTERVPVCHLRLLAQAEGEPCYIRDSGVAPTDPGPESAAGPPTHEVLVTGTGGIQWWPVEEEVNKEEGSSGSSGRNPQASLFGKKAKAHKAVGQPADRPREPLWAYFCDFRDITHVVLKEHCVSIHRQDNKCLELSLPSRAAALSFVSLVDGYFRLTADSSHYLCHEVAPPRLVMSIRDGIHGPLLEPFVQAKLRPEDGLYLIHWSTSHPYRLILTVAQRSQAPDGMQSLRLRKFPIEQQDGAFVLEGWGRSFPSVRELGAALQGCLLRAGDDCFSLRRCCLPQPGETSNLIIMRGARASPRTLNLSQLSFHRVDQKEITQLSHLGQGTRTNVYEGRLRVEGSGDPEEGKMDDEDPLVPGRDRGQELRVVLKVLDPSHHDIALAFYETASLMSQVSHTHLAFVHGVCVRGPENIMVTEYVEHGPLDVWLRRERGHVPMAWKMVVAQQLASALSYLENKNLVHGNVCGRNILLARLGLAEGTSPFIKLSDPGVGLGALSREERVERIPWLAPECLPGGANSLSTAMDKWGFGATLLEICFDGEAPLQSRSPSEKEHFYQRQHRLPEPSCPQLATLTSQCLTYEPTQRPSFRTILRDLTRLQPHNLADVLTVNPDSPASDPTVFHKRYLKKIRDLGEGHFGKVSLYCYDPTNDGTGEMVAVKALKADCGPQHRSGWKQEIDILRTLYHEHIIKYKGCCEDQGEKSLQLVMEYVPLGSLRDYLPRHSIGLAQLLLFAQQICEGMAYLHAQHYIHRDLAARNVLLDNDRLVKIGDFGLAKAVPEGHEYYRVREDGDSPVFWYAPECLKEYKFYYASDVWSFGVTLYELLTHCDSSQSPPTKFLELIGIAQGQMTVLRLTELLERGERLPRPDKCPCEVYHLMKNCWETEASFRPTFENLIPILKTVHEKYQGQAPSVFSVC
T1 sequence (P29597 whole entry P760L): as the sequence (P29597 whole entry, change not shown, the tested form may be a part) above, with P760L counted along it
T4 sequence (P29597 589-875 limits assumed): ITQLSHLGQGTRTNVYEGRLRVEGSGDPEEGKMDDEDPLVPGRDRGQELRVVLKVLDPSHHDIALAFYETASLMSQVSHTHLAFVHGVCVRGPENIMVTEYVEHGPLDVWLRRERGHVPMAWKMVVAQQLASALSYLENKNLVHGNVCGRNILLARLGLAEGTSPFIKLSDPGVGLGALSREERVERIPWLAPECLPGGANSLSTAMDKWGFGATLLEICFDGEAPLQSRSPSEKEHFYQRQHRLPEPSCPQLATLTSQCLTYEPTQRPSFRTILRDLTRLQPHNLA
T2 sequence (P29597 whole entry): as the sequence (P29597 whole entry, change not shown, the tested form may be a part) above
T6 sequence (P23458 whole entry): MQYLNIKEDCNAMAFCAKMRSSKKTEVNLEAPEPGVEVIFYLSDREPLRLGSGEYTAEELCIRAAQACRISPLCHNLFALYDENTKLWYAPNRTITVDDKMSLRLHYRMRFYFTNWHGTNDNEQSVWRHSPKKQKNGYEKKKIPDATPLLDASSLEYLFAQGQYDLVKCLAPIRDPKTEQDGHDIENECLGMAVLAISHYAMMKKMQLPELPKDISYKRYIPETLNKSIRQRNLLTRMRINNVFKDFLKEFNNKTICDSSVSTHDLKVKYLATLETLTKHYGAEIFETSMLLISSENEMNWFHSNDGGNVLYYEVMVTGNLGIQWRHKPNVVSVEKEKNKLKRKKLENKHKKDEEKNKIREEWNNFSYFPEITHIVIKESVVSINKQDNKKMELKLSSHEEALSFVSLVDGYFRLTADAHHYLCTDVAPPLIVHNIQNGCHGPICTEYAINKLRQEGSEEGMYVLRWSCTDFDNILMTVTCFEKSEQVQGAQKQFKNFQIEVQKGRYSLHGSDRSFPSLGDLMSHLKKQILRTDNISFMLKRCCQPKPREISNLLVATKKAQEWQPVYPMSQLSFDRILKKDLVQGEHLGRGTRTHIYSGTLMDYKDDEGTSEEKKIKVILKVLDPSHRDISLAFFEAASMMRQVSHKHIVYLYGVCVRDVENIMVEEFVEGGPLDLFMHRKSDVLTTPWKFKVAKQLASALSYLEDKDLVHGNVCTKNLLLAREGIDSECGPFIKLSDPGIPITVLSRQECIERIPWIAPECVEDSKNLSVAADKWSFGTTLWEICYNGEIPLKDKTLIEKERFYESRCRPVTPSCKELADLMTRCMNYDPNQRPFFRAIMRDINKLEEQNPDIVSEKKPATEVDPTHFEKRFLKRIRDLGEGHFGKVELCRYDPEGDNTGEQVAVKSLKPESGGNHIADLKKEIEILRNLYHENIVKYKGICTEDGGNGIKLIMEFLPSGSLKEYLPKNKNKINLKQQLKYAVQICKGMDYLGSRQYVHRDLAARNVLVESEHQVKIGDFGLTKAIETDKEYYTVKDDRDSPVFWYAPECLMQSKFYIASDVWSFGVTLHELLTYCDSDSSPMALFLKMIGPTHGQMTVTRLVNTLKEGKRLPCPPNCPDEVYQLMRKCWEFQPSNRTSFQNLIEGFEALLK
T3 sequence (O60674 whole entry): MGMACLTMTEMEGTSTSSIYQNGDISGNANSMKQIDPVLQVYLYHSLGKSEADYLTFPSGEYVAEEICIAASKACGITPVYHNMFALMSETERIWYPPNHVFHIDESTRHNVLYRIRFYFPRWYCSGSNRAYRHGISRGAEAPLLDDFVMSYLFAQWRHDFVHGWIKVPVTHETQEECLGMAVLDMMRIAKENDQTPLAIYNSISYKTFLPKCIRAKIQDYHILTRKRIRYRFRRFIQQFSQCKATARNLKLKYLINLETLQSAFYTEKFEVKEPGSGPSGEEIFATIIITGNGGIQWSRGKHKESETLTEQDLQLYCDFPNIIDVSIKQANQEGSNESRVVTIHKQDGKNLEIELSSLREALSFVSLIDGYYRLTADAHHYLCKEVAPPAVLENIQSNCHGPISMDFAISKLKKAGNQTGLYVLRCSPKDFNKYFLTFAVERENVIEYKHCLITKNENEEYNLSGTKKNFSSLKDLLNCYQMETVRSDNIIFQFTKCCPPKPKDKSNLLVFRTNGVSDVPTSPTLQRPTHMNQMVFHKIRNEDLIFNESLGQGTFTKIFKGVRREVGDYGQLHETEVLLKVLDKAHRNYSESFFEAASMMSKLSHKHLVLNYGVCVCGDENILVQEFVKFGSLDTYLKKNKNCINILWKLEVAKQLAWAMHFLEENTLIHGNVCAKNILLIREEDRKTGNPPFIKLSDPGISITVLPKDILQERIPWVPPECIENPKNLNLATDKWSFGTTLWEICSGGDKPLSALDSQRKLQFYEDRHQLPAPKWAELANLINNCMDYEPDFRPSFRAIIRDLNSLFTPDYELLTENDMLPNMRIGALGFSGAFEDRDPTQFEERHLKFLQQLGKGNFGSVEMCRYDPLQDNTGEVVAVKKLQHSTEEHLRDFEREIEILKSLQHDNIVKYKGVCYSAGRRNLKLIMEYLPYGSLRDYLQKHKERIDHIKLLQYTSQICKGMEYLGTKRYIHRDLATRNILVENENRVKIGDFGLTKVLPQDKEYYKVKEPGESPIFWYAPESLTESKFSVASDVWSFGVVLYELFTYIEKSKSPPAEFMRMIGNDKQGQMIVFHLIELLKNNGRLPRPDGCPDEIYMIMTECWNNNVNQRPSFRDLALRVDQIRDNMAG
T7 sequence (P23458 583-855 limits assumed): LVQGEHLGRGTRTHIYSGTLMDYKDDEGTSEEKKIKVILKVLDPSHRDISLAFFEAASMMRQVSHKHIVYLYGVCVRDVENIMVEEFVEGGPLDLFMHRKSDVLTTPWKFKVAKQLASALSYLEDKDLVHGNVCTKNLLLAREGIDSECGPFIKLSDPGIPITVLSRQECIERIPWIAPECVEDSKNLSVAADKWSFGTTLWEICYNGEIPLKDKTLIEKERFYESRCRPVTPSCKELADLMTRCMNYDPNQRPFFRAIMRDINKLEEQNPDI

Row | Compound | solubility at 2 h (Kinetic solubility) [µM] | GI50 [1] [µM] | IC50 (TYK2) [µM] | IC50 (JAK2) [µM] | IC50 (TYK2-JH2 domain) [µM] | GI50 (Ba/F3-TEL-TYK2 cells) [µM] | IC50 (JAK1) [µM] | microsomal CLint at 1 μM [2, 4] [µL/min/mg] | half-life at 1 μM [2, 5] [min] | microsomal CLint at 1 μM [2, 6] [µL/min/mg] | half-life at 1 μM [2, 7] [min] | microsomal CLint at 1 μM [2, 8] [µL/min/mg] | half-life at 1 μM [2, 9] [min] | fraction unbound at 5 h [3] | IC50 (JAK1-JH2 domain) [µM] | JAK1/TYK2 selectivity (TYK2-JH2 domain; ratio JAK1-JH2 IC50 / TYK2-JH2 IC50)
1 | [2H]C([2H])([2H])NC(=O)c1cnc2cc1Nc1cc(cc(-c3ncn(CC)n3)c1OC)COCc1nc(ccc1F)N2 [Example 85, 11-(1-Ethyl-1H-1,2,4-triazol-3-yl)-18-fluoro-10-methoxy-N-(methyl-d3)-15-oxa-2,4,8,21-tetraazatetracyclo[15.3.1.1^{3,7}.1^{9,13}]tricosa-1(20),3,5,7(23),9,11,13(22),17(21),18-nonaene-6-carboxamide] | 15.2 (≈ 7.74 µg/mL) | 0.142 |  |  |  |  |  |  |  |  |  |  |  |  |  | 
2 | CNC(=O)c1nnc(NC(=O)C2CC2)cc1Nc1csc2ccn(C)c(=O)c12 [Example 27, 6-(Cyclopropanecarboxamido)-N-methyl-4-((5-methyl-4-oxo-4,5-dihydrothieno[3,2-c]pyridin-3-yl)amino)pyridazine-3-carboxamide] |  | 0.0509 | > 5 | > 5 | 0.00048 | > 20 | > 5 |  |  |  |  |  |  |  |  | 
3 | CNC(=O)c1nnc(NC(=O)C2CC2)cc1Nc1cn(C)c2ccn(C)c(=O)c12 [Example 49, 6-(Cyclopropanecarboxamido)-4-((1,5-dimethyl-4-oxo-4,5-dihydro-1H-pyrrolo[3,2-c]pyridin-3-yl)amino)-N-methylpyridazine-3-carboxamide] | 6.3 (≈ 2.49 µg/mL) | 0.111 |  |  |  |  |  | < 11.5 | > 120 | 14.4 | 96.2 | 32.4 | 42.8 |  |  | 
4 | CCn1ccc2scc(Nc3cc(NC(=O)C4CC4)ncc3C(=O)NC)c2c1=O [Example 17, 6-(Cyclopropanecarboxamido)-4-((5-ethyl-4-oxo-4,5-dihydrothieno[3,2-c]pyridin-3-yl)amino)-N-methylnicotinamide] |  | 0.114 | > 5 | > 5 | 0.000202 | > 10 | > 5 | 47.1 | 73.6 | 128 | 27.1 | 209 | 16.6 |  |  | 
5 | [2H]C([2H])([2H])NC(=O)c1cnc(NC(=O)C2CC2)cc1Nc1ccc2ncn(CC)c2c1OC [Example 167, 6-(Cyclopropanecarboxamido)-4-((1-ethyl-7-methoxy-1H-benzo[d]imidazol-6-yl)amino)-N-(methyl-d3)nicotinamide] | 109 (≈ 44.9 µg/mL) | 0.1 |  |  |  |  |  | 45 | 30.8 | 57.8 | 24 | 149 | 9.29 |  |  | 
6 | [2H]C([2H])([2H])NC(=O)c1cnc(NC(=O)C2CC2)cc1Nc1ccc2cn[nH]c2c1OC [Example 207, 6-(Cyclopropanecarboxamido)-4-((7-methoxy-1H-indazol-6-yl)amino)-N-(methyl-d3)nicotinamide] | 8.45 (≈ 3.24 µg/mL) | 0.149 |  |  | 0.000407 |  |  |  |  |  |  |  |  | 0.039 |  | 
7 | [2H]C([2H])([2H])NC(=O)c1cnc(Nc2ccn(C)n2)cc1Nc1nn(C)c2ccn(CC)c(=O)c12 [Example 219] | 33.9 (≈ 14.4 µg/mL) | 1.26 |  |  | 0.00286 |  |  |  |  |  |  |  |  |  |  | 
8 | [2H]C([2H])([2H])NC(=O)c1cnc(NC(=O)C2CC2)cc1Nc1ccc2cnn(C(C)C#N)c2c1OC (stereo not drawn) [Example 249, 4-((1-(1-Cyanoethyl)-7-methoxy-1H-indazol-6-yl)amino)-6-(cyclopropanecarboxamido)-N-(methyl-d3)nicotinamide] | 47.4 (≈ 20.7 µg/mL) | 0.357 |  |  | 0.000782 |  |  |  |  |  |  |  |  |  | 0.0254 | 32.5
9 | CCn1ccc2c(c(Nc3cc(NC(=O)C4CC4)nnc3C(=O)NC)cn2C)c1=O [Example 23, 6-(Cyclopropanecarboxamido)-4-((5-ethyl-1-methyl-4-oxo-4,5-dihydro-1H-pyrrolo[3,2-c]pyridin-3-yl)amino)-N-methylpyridazine-3-carboxamide] |  | 0.0629 |  |  | 0.00133 | > 20 |  | 21.4 | 64.8 | 80 | 17.3 | 35.8 | 38.7 |  |  | 
10 | [2H]C([2H])([2H])NC(=O)c1cnc(Nc2ccc(F)cn2)cc1Nc1cn(CCOC)c2ccn(CC)c(=O)c12 [Example 192, 4-((5-Ethyl-1-(2-methoxyethyl)-4-oxo-4,5-dihydro-1H-pyrrolo[3,2-c]pyridin-3-yl)amino)-6-((5-fluoropyridin-2-yl)amino)-N-(methyl-d3)nicotinamide] | 17.8 (≈ 8.59 µg/mL) | 0.124 |  |  | 0.00337 |  |  | 21.9 | 63.4 | 26.8 | 51.6 | 72.6 | 19.1 |  |  | 

— US20250115597A1, “TYK2 INHIBITORS AND COMPOSITIONS AND METHODS THEREOF” (LYNK PHARMACEUTICALS CO. LTD., priority 2021, published 2025)
